According to PubChem BioAssay (NCI):
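Following 48 hours of exposure in 96-well plates, responses at five concentrations were used to interpolate endpoints linearly. GI50 is the concentration that inhibits growth by half. TGI: total growth inhibition.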 Activity calls are given as the source filed them. Rule as the data show it: active = GI50 below about 0.43 µM; inactive = the rest.

Key:
Experiment in all cases: NCI tumour cell line growth inhibition, 48 h
[1] = system: NCI-H460 lung
[2] = system: K-562 leukemia
[3] = system: COLO 205 colon
[4] = system: PC-3 prostate
[5] = system: HS 578T breast
[6] = system: SF-295 CNS
[7] = system: OVCAR-8 ovarian
[8] = system: SW-620 colon
[9] = system: OVCAR-5 ovarian
[10] = system: HOP-92 NSCLC
[11] = system: SN12C renal
[12] = system: MDA-MB-435
[13] = system: NCI-H226 lung
[14] = system: OVCAR-3 ovarian
[15] = system: A549 NSCLC
[16] = system: CCRF-CEM leukemia
[17] = system: NCI-H23 lung
[18] = system: DU-145 prostate
[19] = system: HT29 colon
[20] = system: SNB-19 CNS
[21] = system: NCI/ADR-RES ovarian
[22] = system: IGROV1 ovarian
[23] = system: UO-31 renal
[24] = system: SK-MEL-28 melanoma
[25] = system: EKVX NSCLC
[26] = system: MCF7 breast
[27] = system: U251 CNS
[28] = system: UACC-257 melanoma
[29] = system: MOLT-4 leukemia
[30] = system: ACHN renal
[31] = system: KM20L2 colon
[32] = system: DLD-1 colon
[33] = system: T-47D breast
[34] = system: MDA-MB-231 breast
[35] = system: KM12 colon
[36] = system: CAKI-1 renal
[37] = system: SF-539 CNS
[38] = system: SF-268 CNS
[39] = system: SNB-78 CNS
[40] = system: NCI-H522 lung
[41] = system: HCT-116 colon
[42] = system: LOX IMVI melanoma
[43] = system: SR leukemia
[44] = system: SK-OV-3 ovarian
[45] = system: HCC-2998 colon
[46] = system: A498 renal
[47] = system: MDA-N
[48] = system: OVCAR-4 ovarian
[49] = system: HCT-15 colon
[50] = system: MALME-3M melanoma
[51] = system: UACC-62 melanoma
[52] = system: HOP-62 NSCLC
[53] = system: SK-MEL-2 melanoma
[54] = system: TK-10 renal
[55] = system: RXF 393 renal
[56] = system: SNB-75 CNS
[57] = system: RPMI-8226 leukemia
[58] = system: HL-60(TB) leukemia
[59] = system: M14 melanoma
[60] = system: BT-549 breast
[61] = system: SK-MEL-5 melanoma
[62] = system: 786-0 renal

Compound: OCCNCN(CNCCO)c1nc(N(CNCCO)CNCCO)nc(N(CNCCO)CNCCO)n1
- TGI [1]: 0.354 µM
- outcome [1]: inactive
- TGI [2]: 0.15 µM
- TGI [3]: 0.0877 µM
- outcome [4]: inactive
- outcome [5]: inactive
- TGI [6]: 0.147 µM
- outcome [6]: inactive
- outcome [7]: inactive
- outcome [8]: inactive
- outcome [9]: inactive
- outcome [10]: inactive
- outcome [11]: inactive
- outcome [12]: inactive
- outcome [13]: inactive
- outcome [14]: inactive
- TGI [15]: 0.257 µM
- outcome [15]: inactive
- TGI [16]: 0.0602 µM
- outcome [17]: inactive
- outcome [18]: inactive
- outcome [19]: inactive
- outcome [20]: inactive
- outcome [21]: inactive
- outcome [22]: inactive
- TGI [23]: 0.25 µM
- outcome [24]: inactive
- outcome [25]: inactive
- outcome [26]: inactive
- outcome [27]: inactive
- outcome [28]: inactive
- TGI [29]: 0.205 µM
- outcome [29]: inactive
- outcome [30]: inactive
- TGI [31]: 322 nM
- TGI [32]: 405 nM
- outcome [33]: inactive
- outcome [34]: inactive
- TGI [35]: 0.55 µM
- outcome [36]: inactive
- outcome [37]: inactive
- outcome [38]: inactive
- TGI [39]: 203 nM

Compound: O=S(=O)(Nc1nccs1)c1ccc(Nc2nc(-c3cccs3)nc3ccc(I)cc23)cc1
- TGI [1]: > 81.6 µM
- TGI [40]: > 73.1 µM
- TGI [41]: 36.8 µM
- TGI [42]: 51.8 µM
- TGI [2]: > 55.8 µM
- TGI [3]: 38.2 µM
- TGI [43]: 68.4 µM
- TGI [4]: 32.7 µM
- GI50 [5]: 14 µM
- TGI [5]: > 70 µM
- TGI [44]: 67 µM
- TGI [6]: 43.1 µM
- TGI [45]: 51.5 µM
- TGI [7]: > 69.4 µM
- GI50 [46]: 17.4 µM
- TGI [46]: > 62.3 µM
- TGI [8]: > 59.6 µM
- TGI [47]: > 100 µM
- TGI [48]: 63.2 µM
- TGI [49]: > 80.9 µM
- TGI [9]: 86.3 µM
- TGI [10]: 40 µM
- TGI [11]: > 74.6 µM
- TGI [50]: 44.2 µM
- TGI [12]: 44 µM
- TGI [51]: 52.6 µM
- TGI [13]: 74.8 µM
- TGI [14]: 39.9 µM
- TGI [52]: 51.1 µM
- TGI [53]: > 77.9 µM
- TGI [54]: 44.5 µM
- TGI [15]: 71.2 µM
- TGI [16]: > 19.9 µM
- TGI [17]: > 75.8 µM
- TGI [18]: 46.5 µM
- TGI [19]: 51.7 µM
- TGI [20]: > 93 µM
- TGI [21]: > 100 µM
- TGI [22]: 58.7 µM
- TGI [23]: 65.1 µM
- TGI [24]: 56 µM
- TGI [55]: > 92.2 µM
- TGI [25]: 48.1 µM
- TGI [56]: 74 µM
- TGI [57]: 20.1 µM
- TGI [26]: > 100 µM
- TGI [27]: 54.7 µM
- TGI [58]: > 89.3 µM
- TGI [28]: > 65.7 µM
- TGI [29]: > 62.4 µM
- TGI [30]: > 75.2 µM
- TGI [59]: 58.5 µM
- TGI [33]: 56.6 µM
- TGI [60]: 54 µM
- TGI [61]: 28.4 µM
- GI50 [34]: > 37.8 µM
- TGI [34]: > 57.2 µM
- TGI [35]: 44.1 µM
- TGI [36]: 48.7 µM
- TGI [37]: 68.3 µM
- TGI [38]: > 100 µM
- TGI [62]: 89.4 µM

Compound: CC1=CC(C)C(C)N(CC2=NCCN2)c2ccccc21 (centres undefined)
- TGI [1]: > 100 µM
- TGI [40]: > 100 µM
- TGI [41]: > 100 µM
- TGI [42]: > 100 µM
- TGI [2]: > 100 µM
- TGI [3]: 32.3 µM
- TGI [43]: > 82.4 µM
- TGI [4]: > 100 µM
- TGI [5]: > 100 µM
- TGI [44]: > 100 µM
- TGI [6]: > 100 µM
- TGI [45]: 33.9 µM
- TGI [7]: > 100 µM
- TGI [46]: > 100 µM
- TGI [8]: > 100 µM
- TGI [47]: > 100 µM
- TGI [48]: > 100 µM
- TGI [49]: > 100 µM
- TGI [9]: > 100 µM
- TGI [10]: 45.6 µM
- TGI [11]: > 100 µM
- TGI [50]: 44.6 µM
- TGI [12]: > 100 µM
- TGI [51]: > 100 µM
- TGI [13]: > 100 µM
- TGI [14]: > 100 µM
- TGI [52]: > 100 µM
- TGI [53]: > 92.1 µM
- TGI [54]: > 100 µM
- TGI [15]: > 100 µM
- TGI [16]: > 100 µM
- TGI [17]: > 100 µM
- TGI [18]: > 100 µM
- TGI [19]: 45.8 µM
- TGI [20]: > 100 µM
- TGI [21]: > 100 µM
- TGI [22]: > 100 µM
- TGI [23]: > 100 µM
- TGI [24]: 38.5 µM
- TGI [55]: > 89.9 µM
- TGI [25]: > 100 µM
- TGI [56]: > 85.5 µM
- TGI [57]: > 100 µM
- TGI [26]: > 100 µM
- TGI [27]: > 100 µM
- TGI [58]: > 89.3 µM
- TGI [28]: 37.1 µM
- TGI [29]: > 100 µM
- TGI [30]: > 100 µM
- TGI [59]: 32.7 µM
- TGI [33]: > 100 µM
- TGI [60]: > 100 µM
- TGI [61]: 36.4 µM
- TGI [34]: > 100 µM
- TGI [35]: > 100 µM
- TGI [36]: > 100 µM
- TGI [37]: > 100 µM
- TGI [38]: > 100 µM
- TGI [62]: > 100 µM
